# Results: US10828301B2, “2,4-pyrimidinediamine compounds and their uses” (Rigel Pharmaceuticals, Inc, priority 2002, dated 2020)
# pIC50: −log10 of the molar value.
# Legend:
# [1] = system: cultured human mast cells (CHMC); experiment: CHMC low cell density IgE activation: tryptase and LTC4 assays; format: cell-based; settings: read-out: CHMC anti-IgE Tryptase
# Method: Pellet CHMC cells (980 rpm, 10 min) and resuspend in pre-warmed MT. Add 65 ul of cells to each 96-well plate. Depending on the degranulation activity for each particular CHMC donor, load 1000-1500 cells/well. Mix four times followed by a 1 hr incubation at 37° C. […] Stimulate cells by adding 25 ul of 6× anti-IgE solution to the appropriate plates. Add 25 ul MT to un-stimulated control wells. Mix twice following addition of the anti-IgE. Incubate at 37° C. for 30 minutes. […] Spin plates at 1000 rpm for 10 min to pellet cells. Transfer 25 ul of supernatant to a 96-well black bottom plate and add 100 ul of freshly diluted tryptase substrate solution to each well. Incubate plates at room temperature for 30 min.
# Leukotriene C4 (LTC4) is also quantified using an ELISA kit on appropriately diluted supernatant samples (determined empirically for each donor cell population so that the sample measurement falls within the standard curve) following the supplier's instructions.
# [2] = system: cultured human mast cells (CHMC); experiment: CHMC low cell density ionomycin activation: tryptase assay; format: cell-based; settings: Low Density CHMC, ionomycin activation, tryptase readout, read-out: CHMC Ionomycin Tryptase
# [3] = Low Density CHMC, anti-IgE activation, tryptase readout
# [4] = Homo sapiens, Mast cell, Low Density CHMC, anti-IgE activation, tryptase readout
Structure (SMILES),"pIC50 [1, 4]","pIC50 ([2]; Homo sapiens, Mast cell)",other results
"CNC(=O)COc1cccc(Nc2ncc(F)c(Nc3ccc4c(c3)C(=NO)CCC4)n2)c1 [Compound R926948, 5-Fluoro-N4-(1,2,3,4-tetrahydro-1-hydroxyiminonaphthalen-7-yl)-N2-[3-[(N-methylamino)carbonylmethyleneoxy]phenyl]-2,4-pyrimidinediamine]",–,–,"pIC50 [1, 3]: 6.61; pIC50 [2]: < 5.00"
"Brc1cnc(Nc2cccc(-c3ccccc3)c2)nc1Nc1cccc(-c2ccccc2)c1 [Compound R925803, N2,N4-Bis(3-phenylphenyl)-5-bromo-2,4-pyrimidinediamine]",< 5.00,< 5.00,–
"CCOC(=O)c1nc(Nc2cccc(O)c2)nc(Nc2cccc(O)c2)c1[N+](=O)[O-] [Compound R925849, N2,N4-Bis(3-hydroxyphenyl)-6-ethoxycarbonyl-5-nitro-2,4-pyrimidinediamine]",5.09,< 5.00,–
"COc1ccc(-c2ccccc2)cc1Nc1ncc(C)c(Nc2cc(-c3ccccc3)ccc2OC)n1 [Compound R935000, N2,N4-Bis(2-methoxy-5-phenylphenyl)-5-methyl-2,4-pyrimidinediamine]",< 5.00,< 5.00,–
CNC(=O)CNc1cccc(Nc2ncc(F)c(Nc3cccc(O)c3)n2)c1 [Compound R950218],–,–,pIC50 [2]: < 5.00
"COc1cc(Nc2ncc(F)c(Nc3ccc4c(c3)OCCO4)n2)cc(OC)c1OC [Compound R926762, N4-(3,4-Ethylenedioxyphenyl)-5-fluoro-N2-(3,4,5-trimethoxyphenyl)-2,4-pyrimidinediamine]",6.41,< 5.00,–
"CC(C)c1ccc(Nc2ncc(F)c(Nc3ccc4c(c3)OCCO4)n2)cc1 [Compound R926790, N4-(3,4-Ethylenedioxyphenyl)-5-fluoro-N2-(4-isopropylphenyl)-2,4-pyrimidinediamine]",6.34,5.13,–
"CCOC(=O)C(C)(C)c1ccc(Nc2nc(Nc3ccc4c(c3)OCCO4)ncc2F)cc1 [Compound R935172, N4-[4-[Ethoxycarbonyl(dimethyl)methyl]phenyl]-N2-(3,4-ethylenedioxyphenyl)-5-fluoro-2,4-pyrimidinediamine]",5.86,5.17,–
"CNC(=O)COc1cccc(Nc2ncc(F)c(Nc3ccc4c(c3)C(=O)CCC4)n2)c1 [Compound R926947, 5-Fluoro-N4-(1,2,3,4-tetrahydro-1-oxonaphthalen-7-yl)-N2-[3-[(N-methylamino)carbonylmethyleneoxy]phenyl]-2,4-pyrimidinediamine]",–,–,pIC50 [2]: < 5.00
"COC(=O)c1cc(Nc2ncc(F)c(Nc3ccc(OC(F)(F)F)c(C(=O)OC)c3)n2)ccc1OC(F)(F)F [Compound R950391, N2,N4-Bis(3-methoxycarbonyl-4-trifluoromethoxyphenyl)-5-fluoro-2,4-pyrimidinediamine]",–,< 5.00,–
"CCOc1ccc(Nc2ncc(F)c(Nc3ccc(OCC)cc3)n2)cc1 [Compound R070790, N2,N4-bis(4-ethoxyphenyl)-5-fluoro-2,4-pyrimidinediamine]",–,< 5.00,–
"CNC(=O)Cn1ncc2cc(Nc3ncc(F)c(Nc4ccc(OC(C)C)cc4)n3)ccc21 [Compound R935239, 5-Fluoro-N4-(4-isopropoxyphenyl)-N2-[1-(N-methylaminocarbonyl)methyl-indazoline-5-yl]-2,4-pyrimidinediamine]",–,–,pIC50 [2]: < 5.00
CCOC(=O)CNc1cccc(Nc2ncc(F)c(Nc3cccc(O)c3)n2)c1 [Compound R950216],–,–,"pIC50 [1, 3]: 6.49"
"O=[N+]([O-])c1ccc(F)c(Nc2ncc(F)c(Nc3cc([N+](=O)[O-])ccc3F)n2)c1 [Compound R950147, N2,N4-Bis(2-fluoro-5-nitrophenyl)-5-fluoro-2,4-pyrimidinediamine]",–,–,"pIC50 ([1]; Homo sapiens, Mast cell): < 5.00"
"Nc1c(F)ccc(Nc2ccnc(Nc3ccc(F)c(N)c3F)n2)c1F [Compound R950131, N2,N4-Bis(3-amino-2,4-difluorophenyl)-2,4-pyrimidinediamine]",< 5.00,–,–
"Cc1ccc(N)cc1Nc1ncc(F)c(Nc2cc(N)ccc2C)n1 [Compound R950157, N2,N4-Bis(5-amino-2-methylphenyl)-5-fluoro-2,4-pyrimidinediamine]",< 5.00,–,–
"Cc1ccc(Nc2ccnc(Nc3ccc(C)c(N)c3)n2)cc1N [Compound R950130, N2,N4-Bis(3-amino-4-methylphenyl)-2,4-pyrimidinediamine]",5.31,–,–
O=C(O)Cc1cccc(Nc2ncc(F)c(Nc3cccc(CC(=O)O)c3)n2)c1 [Compound R935117],–,–,"pIC50 [1, 3]: < 5.00"
"O=[N+]([O-])c1ccc(O)c(Nc2ccnc(Nc3cc([N+](=O)[O-])ccc3O)n2)c1 [Compound R950155, N2,N4-Bis(2-hydroxy-5-nitrophenyl)-2,4-pyrimidinediamine]",–,–,"pIC50 ([1]; Homo sapiens, Mast cell): < 5.00"

# Continued, in another order:
"pIC50 [1, 4]","pIC50 ([2]; Homo sapiens, Mast cell)",Structure (SMILES),other results
–,< 5.00,"OCCOc1ccc(Nc2ncc(F)c(Nc3cccc(O)c3)n2)cc1 [Compound R935155, 5-Fluoro-N2-[4-(2-hydroxyethoxy)phenyl]-N4-(3-hydroxyphenyl)-2,4-pyrimidinediamine]",–
6.11,< 5.00,"Oc1ccc(Nc2ncc(F)c(Nc3ccc(O)c(F)c3)n2)cc1F [Compound R926681, N2,N4-Bis(3-fluoro-4-hydroxyphenyl)-5-fluoro-2,4-pyrimidinediamine]",–
6.36,< 5.00,"N#Cc1cnc(Nc2cccc(O)c2)nc1Nc1cccc(O)c1 [Compound R925774, N2,N4-Bis(3-hydroxyphenyl)-5-cyano-2,4-pyrimidinediamine]",–
5.73,< 5.00,"COC(=O)c1ccc(Nc2ncc(F)c(Nc3ccc(C(=O)OC)cc3)n2)cc1 [Compound R945034, N2,N4-Bis(4-methoxycarbonylphenyl)-5-fluoro-2,4-pyrimidinediamine]",–
6.74,< 5.00,"COC(=O)C1Cc2cc(Nc3ncc(F)c(Nc4ccc(OC)c(Cl)c4)n3)ccc2O1 (stereo not drawn) [Compound R926951, N4-(3-Chloro-4-methoxyphenyl)-5-fluoro-N2-[2,3-dihydro-2-(methoxycarbonyl)benzofuran-5-yl]-2,4-pyrimidinediamine]",–
6.67,4.00,"COC(=O)C1Cc2cc(Nc3ncc(F)c(Nc4ccc(Cl)c(Cl)c4)n3)ccc2O1 (racemic) [Compound R927031, (±)-N4-(3,4-Dichlorophenyl)-N2-(2,3-dihydro-2-methoxycarbonylbenzofuran-5-yl)-5-fluoro-2,4-pyrimidinediamine]",–
6.63,< 5.00,"CNC(=O)C1Cc2cc(Nc3ncc(F)c(Nc4ccc(Cl)c(Cl)c4)n3)ccc2O1 (racemic) [Compound R927037, (±)-N4-(3,4-Dichlorophenyl)-N2-[2,3-dihydro-2-(N-methylamino)carbonylbenzofuran-5-yl]-5-fluoro-2,4-pyrimidinediamine]",–
–,< 5.00,"COC(=O)c1cc2cc(Nc3ncc(F)c(Nc4ccc(OC)c(Cl)c4)n3)ccc2o1 [Compound R926950, N4-(3-Chloro-4-methoxyphenyl)-5-fluoro-N2-[2-(methoxycarbonyl)benzofuran-5-yl]-2,4-pyrimidinediamine]",–
5.76,–,"COc1ccc(Nc2nc(Nc3cccc(O)c3)ncc2F)c(OC)n1 [Compound R926887, N4-(2,6-Dimethoxypyridin-3-yl)-5-fluoro-N2-(3-hydroxyphenyl)-2,4-pyrimidinediamine]",–
5.60,–,"CC(=O)c1cccc(Nc2ncc(F)c(Nc3cccc(C(C)=O)c3)n2)c1 [Compound R950376, N2,N4-Bis(3-methylcarbonylphenyl)-5-fluoro-2,4-pyrimidinediamine]",–
